In article PMC11820896, “New Compounds with Enhanced Biological Activity Through the Strategic Introduction of Silylated Groups into Hydroxystearic Acids” (Molecules, 2025):

Experiments:
[1] = system: human tumor cell lines (HT29, MCF-7, HeLa, U2OS, and J6); test: Antiproliferative activity in the series of human tumor cell lines; assay type: cell-based; settings: MTT; concentration range of 10–500 nM
Protocol: (§1) The human colorectal adenocarcinoma (Caco-2), human colorectal adenocarcinoma (HT29), normal human intestinal (I407), human cervical cancer (HeLa), human breast cancer (MCF7), human bone osteosarcoma (U2OS), and human acute T-cell leukemia (Jurkat J6) cell lines were purchased from American Type Culture Collection (ATCC, Manassas, VA, USA). Cells were cultured in RPMI 1640 medium (Labtek Eurobio, Milan, Italy), supplemented with 10% FCS (Euroclone, Milano, Italy) and 2 mM L-glutamine (Sigma-Aldrich, Milano, Italy), at 37 °C and in a 5% CO2 atmosphere. The compounds were dissolved in DMSO in a 30–40 mM stock solution. In cell treatments, the final DMSO concentration never exceeded 0.1%.
(§2) Cells were seeded in a 96-well culture plastic plate (Sarsted, Milan, Italy), at 5 × 10^4 cells/well and, after 24 h, were exposed to increasing concentrations of the different compounds (from 1 nM to 500 nM) dissolved in RPMI 1640 medium. An MTT assay was performed according to Micheletti et al..
(§3) The absorbance at 570 nm was measured using a multi-well plate reader (Tecan, Männedorf, Switzerland), and data were analyzed by Prism GraphPad 8 software and expressed as IC50 nM.

HT29 = test: MTT assay, HT29 cells; assay type: cell-based, human; settings: Homo sapiens, HT-29; MTT; means of four experiments; na = not active; read-out: In vitro cytotoxic activity (IC50), HT29
Protocol: as §1, §2, §3

HeLa = test: MTT assay, HeLa cells; assay type: cell-based; settings: Homo sapiens, means of four experiments, na = not active, read-out: In vitro cytotoxic activity (IC50), HeLa
Protocol: as §1, §2, §3

U2OS = test: MTT assay, U2OS cells; assay type: cell-based; settings: Homo sapiens, means of four experiments, na = not active, read-out: In vitro cytotoxic activity (IC50), U2OS
Protocol: as §1, §2, §3

HT29 cells = system: HT29 cells; set-up: method as in PMID 14715257, PMID 22814230; settings: cited from earlier work
[2] = system: histones H2/H3 and H4 of HT29 cells; set-up: method as in PMID 15716589, PMID 22814230; settings: cited from earlier work
MCF7 = test: MTT assay, MCF7 cells; assay type: cell-based; settings: Homo sapiens, means of four experiments, na = not active, read-out: In vitro cytotoxic activity (IC50), MCF7
Protocol: as §1, §2, §3

J6 = test: MTT assay, Jurkat J6 cells; assay type: cell-based; settings: Homo sapiens, means of four experiments, na = not active, read-out: In vitro cytotoxic activity (IC50), J6
Protocol: as §1, §2, §3

[3] = system: histone deacetylase HDAC1; set-up: method as in PMID 14715257, PMID 15716589, PMID 16702808, PMID 17234448, PMID 22814230; settings: cited from earlier work

SMILES	antitumor activity across all cell lines tested [1]	IC50 (HT29) [nM]	IC50 (HeLa) [nM]	IC50 (U2OS) [nM]	concentration inducing the same effect on the cell cycle (G0/G1 arrest) (HT29 cells) [µM]	also measured
CCCCCCCCC(O[Si](C)(C)C(C)(C)C)C(CCCCCCCC(=O)OC)O[Si](C)(C)C(C)(C)C (racemic) [Compound 10, Rac-erythro-methyl 9,10-bis((tert-butyldimethylsilyl)oxy)octadecanoate]	no activity					
CCCCCCCCC(O[Si](C)(C)C(C)(C)C)C(CCCCCCCC(=O)O)O[Si](C)(C)C(C)(C)C (racemic) [Compound 13, Rac-erythro-9,10-bis((tert-butyldimethylsilyl)oxy)octadecanoic Acid]	showed antitumor activity	25.3 ± 0.27	131.8 ± 0.21	41.95 ± 0.29		
CCCCCCCCC[C@@H](O)CCCCCCCC(=O)O [(R)-9-HSA, (R)-9-hydroxystearic acid]					50	histone acetylation (free acid) [2]: induces hyperacetylation of histone H4
CCCCCCCCC[C@H](CCCCCCCC(=O)OC)O[Si](C)(C)C(C)(C)C [Compound 3, Methyl (R)-9-((tert-butyldimethylsilyl)oxy)octadecanoate]	showed antitumor activity	84.76 ± 0.1	133.7 ± 0.32	29.33 ± 0.23		IC50 (MCF7): 134 ± 0.27 nM; IC50 (J6): 151.6 ± 0.31 nM
CCCCCCCCCC(O)CCCCCCCC(=O)O (stereo not drawn) [Compound 9-HSA, 9-hydroxystearic acid]					100	inhibition of histone deacetylase HDAC1 [3]: selectively inhibits
